ChEMBL document CHEMBL1201862, “PubChem BioAssay data set” (2004)
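Tested at 5 concentrations; 48 h exposure; 96-well plates; endpoints linearly interpolated, else capped at highest concentration. At the GI50, growth is halved.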 Activity calls are given as the source filed them. Cut-off read from the data, not from the text of the source: active = GI50 up to about 1.1 µM and inactive = higher.

Assays:
Assay in all cases: NCI-60 cell line screen, 48 h
[1] = system: CAKI-1
[2] = system: CCRF-CEM
[3] = system: DU-145
[4] = system: HCC 2998
[5] = system: HOP-62
[6] = system: IGROV-1
[7] = system: MDA-MB-435
[8] = system: MOLT-4
[9] = system: Malme-3M
[10] = system: NCI-H23
[11] = system: NCI-H522
[12] = system: OVCAR-4
[13] = system: RPMI-8226
[14] = system: RXF 393
[15] = system: SF-295
[16] = system: SK-MEL-2
[17] = system: SK-OV-3
[18] = system: T47D
[19] = system: U-251
[20] = system: UACC-257

| SMILES | GI50 [1] | GI50 [2] | GI50 [3] | GI50 [4] | GI50 [5] | GI50 [6] | GI50 [7] | GI50 [8] | GI50 [9] | GI50 [10] | GI50 [11] | GI50 [12] | GI50 [13] | GI50 [14] | GI50 [15] | GI50 [16] | GI50 [17] | GI50 [18] | GI50 [19] | GI50 [20] |
| --- | --- | --- | --- | --- | --- | --- | --- | --- | --- | --- | --- | --- | --- | --- | --- | --- | --- | --- | --- | --- |
| O=C(O)C1C(C(=O)O)C2C(=O)C=CC1N2Cc1ccccc1 (stereo not given) | 3.94 µM (inactive) | 0.383 µM (active) | 1.99 µM (inactive) | 2.8 µM (inactive) | 2.59 µM (inactive) | 6.5 µM (inactive) | 3.66 µM (inactive) | 3.54 µM (inactive) | 3.68 µM (inactive) | 2.27 µM (inactive) | 1.87 µM (inactive) | 4.32 µM (inactive) | 2.96 µM (inactive) | 2.72 µM (inactive) | 11.3 µM (inactive) | 8.51 µM (inactive) | 5.35 µM (inactive) | 3.46 µM (inactive) | 3.52 µM (inactive) | 2.62 µM (inactive) |
| O=C(Oc1ccccc1)c1cc2cc(CCl)ccc2oc1=O | 14.5 µM (inactive) | 24.3 µM (inactive) | 27.7 µM (inactive) | 20.5 µM (inactive) | 26.5 µM (inactive) | 23.3 µM (inactive) | 19.4 µM (inactive) | 18.8 µM (inactive) | 1.74 µM (inactive) | 15.5 µM (inactive) | 6.17 µM (inactive) | 24.8 µM (inactive) | 33 µM (inactive) | 13.5 µM (inactive) | 32.6 µM (inactive) | 3.17 µM (inactive) | 28.6 µM (inactive) | 15.6 µM (inactive) | 44.6 µM (inactive) | 11.6 µM (inactive) |
| O=C(CNc1ccc(Cl)cc1)Nn1c(-c2ccccc2)nc2ccccc2c1=O | 11.4 µM (inactive) | 2.04 µM (inactive) | 15.1 µM (inactive) | 11.1 µM (inactive) | 14.9 µM (inactive) | 3.84 µM (inactive) | 8.17 µM (inactive) | 2.49 µM (inactive) | 6.55 µM (inactive) | 5.43 µM (inactive) | 2.99 µM (inactive) | 7.5 µM (inactive) | 4.47 µM (inactive) | 6.55 µM (inactive) | 15.1 µM (inactive) | 16 µM (inactive) | 10.1 µM (inactive) | 4.83 µM (inactive) | 3.47 µM (inactive) | 12.8 µM (inactive) |
| O=C1c2ccccc2C(=O)c2c(/C=C\N3CCCCC3)ccnc21 | 16.9 µM (inactive) | 3.78 µM (inactive) | 1.44 µM (inactive) | 2.72 µM (inactive) | 3.81 µM (inactive) | 11.1 µM (inactive) | 0.327 µM (active) | 6.84 µM (inactive) | 0.661 µM (active) | 0.644 µM (active) | 2.55 µM (inactive) | 9.57 µM (inactive) | 2.29 µM (inactive) | 8.53 µM (inactive) | 2.47 µM (inactive) | 3.72 µM (inactive) | 15.7 µM (inactive) | 2.97 µM (inactive) | 2.99 µM (inactive) | 1.02 µM (active) |
| CC(=O)O[C@H]1C(=O)[C@@]2(C)[C@H]([C@H](OC(=O)c3ccccc3)[C@]3(O)C[C@H](OC(=O)[C@H](O)[C@@H](NC(=O)C(C)(O)C(C)O)c4ccccc4)C(C)=C1C3(C)C)[C@]1(OC(C)=O)CO[C@@H]1C[C@@H]2O (stereo not given in full) | 15.5 µM (inactive) | 0.183 µM (active) | 0.927 µM (active) | 0.141 µM (active) | 0.282 µM (active) | 0.205 µM (active) | 0.0352 µM (active) | 0.282 µM (active) | 0.226 µM (active) | 0.282 µM (active) | 0.107 µM (active) | 13.2 µM (inactive) | 0.0865 µM (active) | 0.316 µM (active) | 3.72 µM (inactive) | 0.124 µM (active) | 0.231 µM (active) | 0.929 µM (active) | 0.239 µM (active) | 0.381 µM (active) |
| CCOC(=O)Cn1nnc2ccc(Nc3nc4ccccc4nc3C(=O)OCC)cc21 | > 100 µM (inactive) | > 100 µM (inactive) | 74.1 µM (inactive) | 87.3 µM (inactive) | 38.3 µM (inactive) | > 100 µM (inactive) | > 100 µM (inactive) | > 100 µM (inactive) | > 100 µM (inactive) | 45.9 µM (inactive) | 39.7 µM (inactive) | > 100 µM (inactive) | > 100 µM (inactive) | 37.9 µM (inactive) | 34.7 µM (inactive) | > 100 µM (inactive) | 59 µM (inactive) | > 100 µM (inactive) | 74 µM (inactive) | > 100 µM (inactive) |
| Cc1sc2[nH]c(=O)oc(=O)c2c1C | 35.8 µM (inactive) | 39.6 µM (inactive) | > 100 µM (inactive) | > 88.5 µM (inactive) | 72.8 µM (inactive) | > 75.3 µM (inactive) | 39.9 µM (inactive) | 48.5 µM (inactive) | > 72.1 µM (inactive) | > 100 µM (inactive) | 26 µM (inactive) | 67.6 µM (inactive) | 41.2 µM (inactive) | > 100 µM (inactive) | > 77.8 µM (inactive) | 37.7 µM (inactive) | > 100 µM (inactive) | > 86.5 µM (inactive) | 51.4 µM (inactive) | > 100 µM (inactive) |
| COC1C=COC2(C)Oc3c(C)c(O)c4c(O)c(c(C5SCCS5)c(O)c4c3C2=O)NC(=O)C(C)=C/C=C\C(C)C2OC(C)(C)OC(C2C)C(C)C(OC(C)=O)C1C (stereo not given) | 6.12 µM (inactive) | 5.86 µM (inactive) | 8.93 µM (inactive) | 5.15 µM (inactive) | 12.2 µM (inactive) | 6.56 µM (inactive) | 4.79 µM (inactive) | 3.83 µM (inactive) | 11.5 µM (inactive) | 6.44 µM (inactive) | 5.02 µM (inactive) | 6.07 µM (inactive) | 4.57 µM (inactive) | 7.21 µM (inactive) | 5.32 µM (inactive) | 5.79 µM (inactive) | 17.1 µM (inactive) | 70.6 µM (inactive) | 4.78 µM (inactive) | 2.74 µM (inactive) |
| O=C(CCc1cc(O)ccc1O)OCCc1ccccc1 | 7.66 µM (inactive) | 0.313 µM (active) | 19.9 µM (inactive) | 47.2 µM (inactive) | 36.1 µM (inactive) | 12.7 µM (inactive) | 10.4 µM (inactive) | 1.36 µM (inactive) | 12.6 µM (inactive) | 32.7 µM (inactive) | 0.28 µM (active) | 1.49 µM (inactive) | 0.875 µM (active) | 11.7 µM (inactive) | 37.5 µM (inactive) | 18.7 µM (inactive) | > 100 µM (inactive) | 16.4 µM (inactive) | 13.6 µM (inactive) | 12.4 µM (inactive) |
| CCN(CC)/[N+]([O-])=N/OCOC(C)=O | > 100 µM (inactive) | 94.4 µM (inactive) | > 100 µM (inactive) | > 100 µM (inactive) | > 100 µM (inactive) | > 100 µM (inactive) | > 100 µM (inactive) | > 100 µM (inactive) | > 100 µM (inactive) | > 100 µM (inactive) | > 100 µM (inactive) | > 100 µM (inactive) | > 100 µM (inactive) | > 100 µM (inactive) | > 100 µM (inactive) | > 100 µM (inactive) | > 100 µM (inactive) | > 100 µM (inactive) | > 100 µM (inactive) | > 100 µM (inactive) |
| O=C(O)CSc1ccccc1C(=O)O | > 100 µM (inactive) | > 100 µM (inactive) | > 100 µM (inactive) | 29.6 µM (inactive) | > 100 µM (inactive) | > 100 µM (inactive) | > 100 µM (inactive) | > 100 µM (inactive) | > 100 µM (inactive) | > 100 µM (inactive) | > 100 µM (inactive) | > 100 µM (inactive) | > 100 µM (inactive) | > 100 µM (inactive) | > 100 µM (inactive) | > 100 µM (inactive) | > 100 µM (inactive) | > 100 µM (inactive) | > 100 µM (inactive) | 15 µM (inactive) |
| CC(=O)OCc1ccc(O)c(C=O)c1 | > 100 µM (inactive) | 46.3 µM (inactive) | > 100 µM (inactive) | > 100 µM (inactive) | > 100 µM (inactive) | > 100 µM (inactive) | > 100 µM (inactive) | 38.3 µM (inactive) | > 100 µM (inactive) | > 100 µM (inactive) | > 100 µM (inactive) | > 100 µM (inactive) | > 100 µM (inactive) | > 100 µM (inactive) | > 100 µM (inactive) | > 100 µM (inactive) | > 100 µM (inactive) | 51.3 µM (inactive) | 74.8 µM (inactive) | > 100 µM (inactive) |
